Columns and labels:
DGKζ = DGKζ (Homo sapiens (Human), UniProt Q13574); experiment: In vitro DGKζ inhibition assay (ADP-Glo); format: biochemical; settings: His-tagged human recombinant enzyme, 0.4 nM DGK, 30 μM ATP, 20 μM DLG, 90 minute incubation
Description: (§1) The DGKα and DGKξ biochemical reactions were performed using His-tagged human recombinant enzymes (Signal Chem, DGKα, #D21-1OBH; DGKξ, #D30-10H)) and DLG (Dilauroyl-sn-glycerol) lipid substrate (Signal Chem, #D430-59). ADP-Glo assay was performed using ADP-Glog™ kinase Assay kit (Promega, #V9104). The reactions were carried out in assay buffer containing 40 mM Tris, pH 7.5, 0.1% CHAPS, 0.1% Prionex, 40 mM NaCl, 5 mM MgCl2, 1 mM CaCl2, and 1 mM DTT. DGKα reactions contained 0.1 nM DGKα, 50 μM ATP, and 20 μM DLG. And DGKC reactions contained 0.4 nM DGK, 30 μM ATP, and 20 μM DLG.
(§2) For compound inhibition studies, 40 nL test compound in DMSO was added to wells of white polystyrene plates in 384-well (Greiner, #784075) or 1536-well format (Greiner, #782075). Compounds were added with top concentration of 2 mM with 11 point, 3-fold dilution series. Enzyme solution (contains 2×DGK enzyme concentration in Ix assay buffer) was added to the plate in 2 μL/well volume, followed by 2 μL/well of substrate solution (contains 2×concentration of ATP and DLG substrate in Ix assay buffer). Plates were then centrifuged for 1 min at 1200 RPM and sealed or lidded. For 4 μL reaction volume, test compounds were therefore diluted 100× to final top concentration of 20 μM. After 90 minute incubation, reactions were quenched by addition of 2 μL/well Promega ADP-Glo Reagent, followed by centrifugation and lidding. After 60 min incubation, 2 μL/well Promega Kinase Detection Reagent was added, plates centrifuged, and incubated for 30 min. Plates were then read using Luminescence method on BMG PHERAstar FSX plate reader. Percent inhibition was calculated and IC50s were determined using 4-parameter fit in Genedata Screener. Labcyte Echo acoustic dispenser was used for compound addition, and Formulatrix Tempest liquid handler was used for all reagent dispenses.

DGKα = DGKα (Homo sapiens (Human), UniProt P23743); experiment: In vitro DGKα inhibition assay (ADP-Glo); format: biochemical; settings: His-tagged human recombinant enzyme, 0.1 nM DGKα, 50 μM ATP, 20 μM DLG, 90 minute incubation
DGKα, sequence (P23743 whole entry): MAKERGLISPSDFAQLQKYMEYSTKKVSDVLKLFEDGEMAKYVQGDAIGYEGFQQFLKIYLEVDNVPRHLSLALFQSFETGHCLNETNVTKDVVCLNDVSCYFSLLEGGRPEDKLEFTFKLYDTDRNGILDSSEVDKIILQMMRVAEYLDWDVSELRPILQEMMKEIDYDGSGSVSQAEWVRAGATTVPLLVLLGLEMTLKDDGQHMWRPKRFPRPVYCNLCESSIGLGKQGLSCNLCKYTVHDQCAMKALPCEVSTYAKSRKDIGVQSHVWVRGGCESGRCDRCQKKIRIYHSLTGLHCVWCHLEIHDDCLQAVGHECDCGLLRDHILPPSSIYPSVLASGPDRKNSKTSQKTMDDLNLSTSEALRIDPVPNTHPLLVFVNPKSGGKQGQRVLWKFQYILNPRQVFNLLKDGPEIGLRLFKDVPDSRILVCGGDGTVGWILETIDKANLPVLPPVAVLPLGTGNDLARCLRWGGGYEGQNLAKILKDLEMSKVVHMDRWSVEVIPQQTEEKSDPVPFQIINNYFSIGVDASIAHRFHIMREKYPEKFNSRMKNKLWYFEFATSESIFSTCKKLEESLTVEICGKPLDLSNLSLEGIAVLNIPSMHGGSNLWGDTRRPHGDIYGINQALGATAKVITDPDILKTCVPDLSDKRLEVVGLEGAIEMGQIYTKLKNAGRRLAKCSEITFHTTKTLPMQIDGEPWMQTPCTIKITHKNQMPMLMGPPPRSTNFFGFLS
Description: as §1, §2

DGKζ, sequence (Q13574 whole entry): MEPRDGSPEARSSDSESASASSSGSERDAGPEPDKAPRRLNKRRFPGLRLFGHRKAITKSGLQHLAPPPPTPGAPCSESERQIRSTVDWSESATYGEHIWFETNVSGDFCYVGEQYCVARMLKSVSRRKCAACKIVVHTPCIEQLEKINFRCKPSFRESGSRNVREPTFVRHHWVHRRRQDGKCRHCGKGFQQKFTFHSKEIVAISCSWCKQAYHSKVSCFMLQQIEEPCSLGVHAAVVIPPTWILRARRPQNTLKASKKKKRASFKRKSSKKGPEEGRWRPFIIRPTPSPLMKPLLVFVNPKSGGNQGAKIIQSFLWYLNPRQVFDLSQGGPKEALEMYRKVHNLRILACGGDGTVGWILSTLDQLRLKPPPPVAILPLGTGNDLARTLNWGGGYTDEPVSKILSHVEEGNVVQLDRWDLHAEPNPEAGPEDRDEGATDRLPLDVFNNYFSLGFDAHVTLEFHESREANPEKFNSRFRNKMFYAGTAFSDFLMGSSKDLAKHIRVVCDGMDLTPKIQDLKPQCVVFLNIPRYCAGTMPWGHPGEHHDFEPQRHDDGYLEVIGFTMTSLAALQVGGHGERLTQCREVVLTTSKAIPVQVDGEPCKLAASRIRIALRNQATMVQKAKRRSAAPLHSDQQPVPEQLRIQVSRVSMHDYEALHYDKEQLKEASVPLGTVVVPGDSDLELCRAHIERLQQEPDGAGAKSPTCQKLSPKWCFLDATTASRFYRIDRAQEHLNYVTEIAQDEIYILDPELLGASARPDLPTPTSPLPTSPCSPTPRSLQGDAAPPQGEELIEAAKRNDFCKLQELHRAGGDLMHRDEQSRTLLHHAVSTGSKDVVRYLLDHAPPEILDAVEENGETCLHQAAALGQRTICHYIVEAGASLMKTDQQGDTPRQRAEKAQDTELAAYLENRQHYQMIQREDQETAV

Row | Structure (SMILES) | IC50 (DGKζ) [nM] | IC50 (DGKα) [nM]
1 | C[C@@H]1CN(c2nc3nncn3c3sc(-c4cn[nH]c4)nc23)[C@@H](C)CN1C(c1ccc(F)cc1)c1ccc(F)cc1 [Example 5, 4-((2S,5R)-4-(Bis(4-fluorophenyl)methyl)-2,5-dimethylpiperazin-1-yl)-2-(1H-pyrazol-4-yl)thiazolo[4,5-e][1,2,4]triazolo[4,3-a]pyrimidine] | > 2000 | ≤ 20
2 | COc1ccc([C@@H](C(C)C)N2C[C@H](C)N(c3nc4nncn4c4c3nc(C)n4C[C@@H]3CCCO3)C[C@H]2C)cc1 [Example 78, 4-((2S,5R)-4-((R)-1-(4-methoxyphenyl)-2-methylpropyl)-2,5-dimethylpiperazin-1-yl)-2-methyl-1-(((S)-tetrahydrofuran-2-yl)methyl)-1H-[1,2,4]triazolo[3,4-b]purine] | ≤ 20 | ≤ 20
3 | Cc1nc2c(N3C[C@@H](C)N(C(c4ccc(Cl)c(C(F)(F)F)c4)C4CC(F)(F)C4)C[C@@H]3C)nc3nncn3c2n1C[C@@H]1CCCO1 (stereo partly drawn) [Example 59, 4-((2S,5R)-4-((4-Chloro-3-(trifluoromethyl)phenyl)(3,3-difluorocyclobutyl)methyl)-2,5-dimethylpiperazin-1-yl)-2-methyl-1-(((S)-tetrahydrofuran-2-yl)methyl)-1H-[1,2,4]triazolo[3,4-b]purine] | ≤ 20 | ≤ 20
4 | [2H]c1nc2c(N3C[C@@H](C)N(C(c4ccc(F)cc4)c4ccc(F)cc4)C[C@@H]3C)nc3nncn3c2n1CCN(C)C [Example 34, 2-(4-((2S,5R)-4-(Bis(4-fluorophenyl)methyl)-2,5-dimethylpiperazin-1-yl)-1H-[1,2,4]triazolo[3,4-b]purin-1-yl-2-d)-N,N-dimethylethan-1-amine] | ≤ 20 | ≤ 20
5 | Cc1nc2c(N3C[C@@H](C)N([C@H](c4cccc(C(F)(F)F)c4)C(C)C)C[C@@H]3C)nc3nncn3c2n1C[C@@H]1CCCO1 [Example 69, 4-((2S,5R)-2,5-Dimethyl-4-((S)-2-methyl-1-(3-(trifluoromethyl)phenyl)propyl)piperazin-1-yl)-2-methyl-1-(((S)-tetrahydrofuran-2-yl)methyl)-1H-[1,2,4]triazolo[3,4-b]purine] | ≤ 20 | ≤ 20
6 | CC(C)[C@@H](c1ccc(F)cc1)N1C[C@H](C)N(c2nc3nncn3c3c2ncn3CC2CC2)C[C@H]1C [Example 22, 1-(Cyclopropylmethyl)-4-((2S,5R)-4-((S)-1-(4-fluorophenyl)-2-methylpropyl)-2,5-dimethylpiperazin-1-yl)-1H-[1,2,4]triazolo[3,4-b]purine] | ≤ 20 | ≤ 20
7 | Cc1nc2c(N3C[C@@H](C)N(C(c4ccc(C(F)(F)F)c(Cl)c4)C4CC(F)(F)C4)C[C@@H]3C)nc3nncn3c2n1C[C@@H]1CCCO1 (stereo partly drawn) [Example 58, 4-((2S,5R)-4-((3-Chloro-4-(trifluoromethyl)phenyl)(3,3-difluorocyclobutyl)methyl)-2,5-dimethylpiperazin-1-yl)-2-methyl-1-(((S)-tetrahydrofuran-2-yl)methyl)-1H-[1,2,4]triazolo[3,4-b]purine] | ≤ 20 | ≤ 20
8 | CC[C@@H]1CN(c2nc3nncn3c3c2nnn3C[C@H]2CCCO2)[C@@H](C)CN1C(c1ccc(F)cc1)c1ccc(F)cc1 [Example 32, 4-((2S,5R)-4-(Bis(4-fluorophenyl)methyl)-5-ethyl-2-methylpiperazin-1-yl)-1-(((R)-tetrahydrofuran-2-yl)methyl)-1H-[1,2,3]triazolo[4,5-e][1,2,4]triazolo[4,3-a]pyrimidine] | ≤ 20 | ≤ 20
9 | CC[C@@H]1CN(c2nc3nncn3c3c2ncn3CCN(C)C)[C@@H](C)CN1C(c1ccc(Cl)cc1)C1CC(F)(F)C1 (stereo partly drawn) [Example 66, 2-(4-((2S,5R)-4-((4-Chlorophenyl)(3,3-difluorocyclobutyl)methyl)-5-ethyl-2-methylpiperazin-1-yl)-1H-[1,2,4]triazolo[3,4-b]purin-1-yl)-N,N-dimethylethan-1-amine] | ≤ 20 | ≤ 20
10 | Cc1nc2c(N3C[C@@H](C)N([C@H](c4ccc(F)c(F)c4)C4CC(F)(F)C4)C[C@@H]3C)nc3nncn3c2n1C[C@@H]1CCCO1 [Example 46, 4-((2S,5R)-4-((S)-(3,3-Difluorocyclobutyl)(3,4-difluorophenyl)methyl)-2,5-dimethylpiperazin-1-yl)-2-methyl-1-(((S)-tetrahydrofuran-2-yl)methyl)-1H-[1,2,4]triazolo[3,4-b]purine] | ≤ 20 | ≤ 20
11 | C[C@H]1CN(C(c2ccc(F)cc2)c2ccc(F)cc2)[C@H](CC#N)CN1c1nc2nncn2c2scnc12 [Example 14, 2-((2R,5S)-1-(Bis(4-fluorophenyl)methyl)-5-methyl-4-(thiazolo[4,5-e][1,2,4]triazolo[4,3-a]pyrimidin-4-yl)piperazin-2-yl)acetonitrile] | ≤ 20 | ≤ 20
12 | Cc1nc2c(N3C[C@@H](C)N(C(c4ccc(F)c(C(F)(F)F)c4)C(C)C)C[C@@H]3C)nc3nncn3c2n1C[C@@H]1CCCO1 (stereo partly drawn) [Example 84, 4-((2S,5R)-4-(1-(4-Fluoro-3-(trifluoromethyl)phenyl)-2-methylpropyl)-2,5-dimethylpiperazin-1-yl)-2-methyl-1-(((S)-tetrahydrofuran-2-yl)methyl)-1H-[1,2,4]triazolo[3,4-b]purine] | ≤ 20 | ≤ 20
13 | COc1cccc([C@@H](C(C)C)N2C[C@H](C)N(c3nc4nncn4c4c3nc(C)n4C[C@@H]3CCCO3)C[C@H]2C)c1 [Example 99, 4-((2S,5R)-4-((R)-1-(3-methoxyphenyl)-2-methylpropyl)-2,5-dimethylpiperazin-1-yl)-2-methyl-1-(((S)-tetrahydrofuran-2-yl)methyl)-1H-[1,2,4]triazolo[3,4-b]purine] | ≤ 20 | ≤ 20
14 | Cc1nc2c(N3C[C@@H](C)N([C@H](c4ccc(C(F)(F)F)cc4)C(C)C)C[C@@H]3C)nc3nncn3c2n1C[C@@H]1CCCO1 [Example 67, 4-((2S,5R)-2,5-Dimethyl-4-((S)-2-methyl-1-(4-(trifluoromethyl)phenyl)propyl)piperazin-1-yl)-2-methyl-1-(((S)-tetrahydrofuran-2-yl)methyl)-1H-[1,2,4]triazolo[3,4-b]purine] | ≤ 20 | ≤ 20
15 | Cc1nc2c(N3C[C@@H]([C@H](C)O)N(C(c4ccc(F)cc4)c4ccc(F)cc4)C[C@@H]3C)nc3nncn3c2n1C[C@@H]1CCCO1 [Example 124, (S)-1-((2S,5S)-1-(bis(4-fluorophenyl)methyl)-5-methyl-4-(2-methyl-1-(((S)-tetrahydrofuran-2-yl)methyl)-1H-[1,2,4]triazolo[3,4-b]purin-4-yl)piperazin-2-yl)ethan-1-ol] | ≤ 20 | ≤ 20
16 | C[C@@H]1CN(c2nc3nncn3c3ccsc23)[C@@H](C)CN1C(c1ccc(F)cc1)c1ccc(F)cc1 [Example 8, 5-((2S,5R)-4-(Bis(4-fluor ophenyl)methyl)-2,5-dimethylpiperazin-1-yl)thieno[2,3-e][1,2,4]triazolo[4,3-a]pyrimidine] | 200 to 2000 | 
17 | CC[C@@H]1CN(c2nc3nncn3c3c2nc(C)n3C[C@@H]2CCCO2)[C@@H](C)CN1[C@H](c1ccc(C(F)(F)F)cc1)C(C)C [Example 128, 4-((2S,5R)-5-Ethyl-2-methyl-4-((S)-2-methyl-1-(4-(trifluoromethyl)phenyl)propyl)piperazin-1-yl)-2-methyl-1-(((S)-tetrahydrofuran-2-yl)methyl)-1H-[1,2,4]triazolo[3,4-b]purine] | ≤ 20 | ≤ 20
18 | C[C@@H]1CN(c2nc3nncn3c3c2ncn3CCN(C)C)[C@@H](C)CN1[C@H](c1ccc(C(F)(F)F)cc1)c1ccc(C(F)(F)F)cn1 [Example 102, 2-(4-((2S,5R)-2,5-dimethyl-4-((R)-(4-(trifluoromethyl)phenyl)(5-(trifluoromethyl)pyridin-2-yl)methyl)piperazin-1-yl)-1H-[1,2,4]triazolo[3,4-b]purin-1-yl)-N,N-dimethylethan-1-amine] | ≤ 20 | ≤ 20
19 | CC(C)[C@H](c1ccc(Cl)cc1)N1C[C@H](C)N(c2nc3nncn3c3c2ncn3CCN(C)C)C[C@H]1C [Example 91, 2-(4-((2S,5R)-4-((R)-1-(4-chlorophenyl)-2-methylpropyl)-2,5-dimethylpiperazin-1-yl)-1H-[1,2,4]triazolo[3,4-b]purin-1-yl)-N,N-dimethylethan-1-amine] | 20 to 200 | ≤ 20
20 | COc1cccc([C@H](C(C)C)N2C[C@H](C)N(c3nc4nncn4c4c3nc(C)n4C[C@@H]3CCCO3)C[C@H]2C)c1 [Example 98, 4-((2S,5R)-4-((S)-1-(3-Methoxyphenyl)-2-methylpropyl)-2,5-dimethylpiperazin-1-yl)-2-methyl-1-(((S)-tetrahydrofuran-2-yl)methyl)-1H-[1,2,4]triazolo[3,4-b]purine] | ≤ 20 | ≤ 20
